“Also recorded” adds a separate entry of the source.
Tests used:
[1] = target: T1, human ABCC11 (Homo sapiens, UniProt Q96J66); assay: in vitro DHEAS vesicle transport assay with ABCC11-expressing plasma membrane vesicles; type: biochemical; conditions: ATP-dependent transport of 100 nM [3H]-DHEAS into ABCC11-expressing 293A plasma membrane vesicles, 5 min, 37° C., febuxostat at indicated concentrations
T1 construct: The complete human ABCC11 cDNA; expressed in transfected cells; host or cells: 293A cells (HEK293-derived), adenovirus-infected; plasma membrane vesicles prepared from them
Source text: (§1) Using an in vitro transport system with ABCC11-expresssing plasma. membrane vesicles (FIG. 1A), we investigated the effect of the test compound on ABCC11 function. To confirm the experimental system, we first examined the time-dependent increase in ATP-dependent dehydroepiandrosterone sulfate (DHEAS)—an ABCC11 substrate (Chen et al., 2005)—transport into the ABCC11-expressing plasma membrane vesicles (FIG. 1B).
(§2) Critical materials and resources used in this study were summarized in Supplementary Table S1. […]
Membrane vesicles were prepared from 293A cells infected with the ABCC11-expressing or EGFP-expressing (control) adenovirus as described previously (Toyoda et al., 2017). […] Protein concentration of the plasma membrane vesicles was quantified using a BCA Protein Assay Kit (Pierce, Rockford, Ill., USA) with bovine serum albumin (BSA) as a standard according to the manufacturer's protocol.
Experiments to study the in vitro transport of [1,2,6,7-^3H(N)]-dehydroepiandrosterone sulfate (DHEAS) (Perkin-Elmer Japan, Tokyo, Japan), an ABCC11 substrate (Chen et al., 2005), into ABCC11-expressing and control vesicles were performed by using a rapid filtration technique (Toyoda et al., 2017; Toyoda et al., 2019) with a minor modification. […] Then, the radioactivity derived from the incorporated DHEAS was measured. […]

[2] = target: T2, human ABCC11 WT (NCBI accession NM_033151) (Homo sapiens, UniProt Q96J66); assay: Inhibition of ABCC11-mediated ATP-dependent [3H]-DHEAS transport into ABCC11-expressing plasma membrane vesicles (vesicle transport assay, rapid filtration); type: biochemical
T2 construct: made in house; host or cells: plasma membrane vesicles from HEK293-derived 293A cells infected with ABCC11-expressing recombinant adenovirus
Source text: as §1, §2
FIG. 1. […] The DHEAS transport into membrane vesicles was measured at the indicated periods with or without ATP; the ATP-dependent DHEAS transport was calculated by subtracting the DHEAS transport activity in the absence of ATP from that in the presence of ATP. Data are expressed as the mean±SD. n=3. […] The DHEAS transport activities were measured in the presence of febuxostat at the indicated concentrations for 5 min. Data are expressed as the mean±SD. n=4. […]
Critical materials and resources used in this study were summarized in Supplementary Table S1. […] After the purification by a CsCl gradient ultracentrifugation method, the adenovirus titer was determined by using an. […]

T1 sequence (Q96J66 whole entry): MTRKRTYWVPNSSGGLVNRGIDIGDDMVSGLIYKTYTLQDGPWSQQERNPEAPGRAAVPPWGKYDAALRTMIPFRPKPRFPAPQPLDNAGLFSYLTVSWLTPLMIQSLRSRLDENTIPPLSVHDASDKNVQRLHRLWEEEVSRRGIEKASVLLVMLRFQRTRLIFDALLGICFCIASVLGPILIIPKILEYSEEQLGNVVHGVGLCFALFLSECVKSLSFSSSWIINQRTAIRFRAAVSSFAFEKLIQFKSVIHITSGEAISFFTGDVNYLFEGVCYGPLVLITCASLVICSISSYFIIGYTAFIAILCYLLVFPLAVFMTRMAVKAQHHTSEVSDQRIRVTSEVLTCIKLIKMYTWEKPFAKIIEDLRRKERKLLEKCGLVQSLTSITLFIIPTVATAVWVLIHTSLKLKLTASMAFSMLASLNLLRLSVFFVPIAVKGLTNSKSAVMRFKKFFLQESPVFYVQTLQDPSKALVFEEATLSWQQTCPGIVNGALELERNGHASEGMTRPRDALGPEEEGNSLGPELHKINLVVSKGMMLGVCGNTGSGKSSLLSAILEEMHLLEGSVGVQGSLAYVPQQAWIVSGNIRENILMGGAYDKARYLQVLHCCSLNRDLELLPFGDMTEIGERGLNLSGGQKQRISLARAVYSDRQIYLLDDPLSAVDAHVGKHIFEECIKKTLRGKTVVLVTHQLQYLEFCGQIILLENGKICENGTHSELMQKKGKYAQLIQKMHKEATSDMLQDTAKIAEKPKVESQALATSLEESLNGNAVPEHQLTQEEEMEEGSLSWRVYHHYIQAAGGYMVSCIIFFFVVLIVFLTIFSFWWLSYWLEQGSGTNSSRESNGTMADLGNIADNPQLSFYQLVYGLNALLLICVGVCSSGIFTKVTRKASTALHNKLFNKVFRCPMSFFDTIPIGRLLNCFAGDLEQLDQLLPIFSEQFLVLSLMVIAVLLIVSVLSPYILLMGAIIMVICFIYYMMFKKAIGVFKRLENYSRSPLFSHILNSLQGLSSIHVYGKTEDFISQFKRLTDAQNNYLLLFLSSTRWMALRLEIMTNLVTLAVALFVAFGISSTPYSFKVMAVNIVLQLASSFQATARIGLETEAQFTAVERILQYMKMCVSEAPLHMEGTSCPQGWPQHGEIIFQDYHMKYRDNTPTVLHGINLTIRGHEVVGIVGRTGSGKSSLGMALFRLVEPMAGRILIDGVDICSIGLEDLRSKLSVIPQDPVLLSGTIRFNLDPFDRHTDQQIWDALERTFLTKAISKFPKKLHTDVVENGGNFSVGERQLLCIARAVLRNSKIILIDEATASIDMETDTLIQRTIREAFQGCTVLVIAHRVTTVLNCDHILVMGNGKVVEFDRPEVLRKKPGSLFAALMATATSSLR
T2 sequence (Q96J66 whole entry): as above

Structure (SMILES): Cc1nc(-c2ccc(OCC(C)C)c(C#N)c2)sc1C(=O)O [febuxostat]
- inhibition of ABCC11-mediated DHEAS transport [1]: Dose-dependent inhibition; also recorded: inhibited ABCC11

Structure (SMILES): Cc1nc(-c2ccc(OCC(C)C)c(C#N)c2)sc1C(=O)O [Febuxostat]
- IC50 [2]: 3.26 µM
